These results are taken from US12643877B2, “Substituted tetrahydroisoquinoiline derivative as a D1 positive allosteric modulator” (UCB Biopharma SRL, priority 2019, dated 2026).

Series [1] deals with T1, dopamine D1 receptor (Homo sapiens, UniProt P21728).
T1 construct: host or cells: LMtk (Ltk-) mouse fibroblast cells
In words: cAMP HTRF activation assay (absence of dopamine). Conditions: L-M(TK-), 10 μM compound, LMtk cells expressing D1, read-out: % of activation (compared to dopamine maximal response). It is filed as cell-based. The text has this:
(§1) Assays have been designed to measure the effects of compounds in accordance with the present invention in the absence of dopamine (“activation assay”) and in the presence of dopamine (“potentiation assay”).
The activation assay measures the stimulation of the production of cyclic adenosinemonophosphate (cAMP) in the Homogeneous Time Resolved Fluorescent (HTRF) assay, with the maximum increase in cAMP by increasing concentrations of the endogenous agonist, dopamine, defined as 100% activation.
(§2) Cells were cultured at 37° C. in a humidified atmosphere of 5% CO2. […]
The measurement of changes in intracellular cyclic adenosinemonophopshpate (cAMP) was determined using the HTRF cAMP dynamic assay kit from CisBio (Codolet, France). […] The tracer binding is determined by an anti-cAMP antibody labeled with cryptate. The effects of the compound alone (agonism) was determined by performing the assay in the absence of dopamine, whilst the effect of the compound as a positive allosteric modulator (PAM) was determined in the presence of an EC20 concentration of dopamine. […] This is then incubated for a further 60 min at room temperature and changes in HTRF fluorescent emission ratio determined according to manufacturer's instructions using an Envision plate reader (Perkin Elmer, Zaventem, Belgium) with laser excitation. […]
(In general: Time-resolved FRET reads energy transfer from a long-lived donor to a nearby acceptor.)

For series [2], the target named is T1, dopamine D1 receptor. In words: cAMP HTRF potentiation assay (presence of EC20 dopamine). Format: cell-based.
Description: as §1
The potentiation assay measures the ability of compounds to increase the levels of cAMP produced by a low-threshold concentration of dopamine. The concentration of dopamine used ([EC20]) is designed to produce 20% stimulation compared to the maximal response (100%) seen with increasing the concentration of dopamine. To measure this potentiation increasing concentrations of the compound with the [EC20] of dopamine are incubated and the potentiation is measured as increases in cAMP production and concentration of compound which produces 50% of the potentiation of the cAMP levels is measured.
as §2
The measurement of changes in intracellular cyclic adenosinemonophopshpate (cAMP) was determined using the HTRF cAMP dynamic assay kit from CisBio (Codolet, France). […] The tracer binding is determined by an anti-cAMP antibody labeled with cryptate. The effects of the compound alone (agonism) was determined by performing the assay in the absence of dopamine, whilst the effect of the compound as a positive allosteric modulator (PAM) was determined in the presence of an EC20 concentration of dopamine. […]

Series [3] addresses T2, human GABAA receptor α1,β2 and γ2 subunits (Homo sapiens, UniProt P14867+P18507+P47870).
T2 construct: expressed in transfected cells; host or cells: CHO-K1 cells
In words: Automated patch clamp studies on GABAA receptor cells. Format: cell-based. Particulars: 10 μM compound; GABA 15 μM; CHO-K1 cells; read-out: percentage of inhibition of the GABAA receptor. On the procedure:
CHO-K1 cells stably expressing human GABAA receptor α1,β2 and γ2 subunits were used. The cells were harvested using trypsin and maintained in serum-free medium at room temperature. The cells were washed and re-suspended in extracellular solution before testing.
Experiments on human GABAA (α1β2γ2) channels were conducted using an automated patch clamp assay (IonFlux™ HT). Compounds were tested at 3 concentrations (0.1, 1, and 10 μM) in 3 to 4 cells. The external solution for recording GABAA currents was composed of sodium chloride 137 mM, potassium chloride 4 mM, calcium chloride 1.8 mM, magnesium chloride 1 mM, HEPES 10 mM, and glucose 10 mM. Both external and internal solutions were titrated with NaOH or KOH to obtain a pH of 7.35 or 7.3, respectively. The internal pipette solution contained potassium fluoride 70 mM, potassium chloride 60 mM, sodium chloride 70 mM, HEPES 5 mM, EGTA 5 mM, and Magnesium ATP 4 mM. The final concentration of vehicle used to dilute compounds was 0.33% DMSO in each well. Bicuculline (0.032 to 100 μM) was used as positive control inhibitor. GABA (15 μM) was used as agonist. […]
The compound addition sequence was the following: one addition of the EC80 concentration of GABA was added to establish baseline response. […] Peak inward currents in response to the GABA additions in the presence of a single concentration of compound were measured. […]

A further series relates to CYP3A4. The series can be described thus: CYP3A4 induction assay in cryopreserved human hepatocytes. It is filed as in vitro ADME. On the procedure:
The objective of the human hepatocyte assay is to characterize the induction potential of Compound of formula (I) by measuring the CYP3A4 activities after 3-days of hepatocytes treatment with culture medium alone or culture medium containing increasing concentration of NCE.
To this aim, cryopreserved human hepatocytes from a single donor are seeded on a 48 well collagen coated plate so that the final seeding density is 0.2×10^6 cells/well (final volume per well 0.25 mL). The cells are then incubated in seeding medium at 37° C., 95% humidity, 5% CO2 to allow the cells to attach. […]
For catalytic activity determination, solution of the CYP3A4 probe substrate, midazolam (final concentration 2.5 μM) is prepared in pre warmed assay medium. […] An aliquot of supernatant is diluted with deionised water and levels of 1-hydroxymidazolam is quantified using generic LC MS/MS methods.
The hepatocytes are solubilised in 0.1M sodium hydroxide at room temperature and protein content in each well determined using Pierce™ BCA Protein Assay Kit (Thermo Scientific) using bovine serum albumin as a standard.
The fold-induction (increase in CYP activity) is obtained by taking the ratio of the measured enzymatic activity obtained in hepatocytes treated with Compound of formula (I), over the one obtained in control hepatocytes treated with vehicle. […]

Several values for one entry are separate records, joined by “and”; a condition that tells them apart may be missing. Equal entries are not always repeated.

T1 sequence (P21728 whole entry): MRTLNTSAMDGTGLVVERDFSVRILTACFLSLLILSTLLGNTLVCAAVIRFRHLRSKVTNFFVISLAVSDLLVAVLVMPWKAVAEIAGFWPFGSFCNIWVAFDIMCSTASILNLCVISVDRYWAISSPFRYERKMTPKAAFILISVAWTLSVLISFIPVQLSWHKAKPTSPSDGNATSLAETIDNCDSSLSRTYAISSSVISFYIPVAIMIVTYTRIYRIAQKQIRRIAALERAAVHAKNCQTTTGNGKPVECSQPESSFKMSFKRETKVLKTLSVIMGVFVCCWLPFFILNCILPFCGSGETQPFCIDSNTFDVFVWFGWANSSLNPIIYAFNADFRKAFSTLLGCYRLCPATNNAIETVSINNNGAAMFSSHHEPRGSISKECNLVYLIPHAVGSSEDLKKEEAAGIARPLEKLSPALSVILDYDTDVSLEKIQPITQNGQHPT
T2 sequence (P14867 28-456): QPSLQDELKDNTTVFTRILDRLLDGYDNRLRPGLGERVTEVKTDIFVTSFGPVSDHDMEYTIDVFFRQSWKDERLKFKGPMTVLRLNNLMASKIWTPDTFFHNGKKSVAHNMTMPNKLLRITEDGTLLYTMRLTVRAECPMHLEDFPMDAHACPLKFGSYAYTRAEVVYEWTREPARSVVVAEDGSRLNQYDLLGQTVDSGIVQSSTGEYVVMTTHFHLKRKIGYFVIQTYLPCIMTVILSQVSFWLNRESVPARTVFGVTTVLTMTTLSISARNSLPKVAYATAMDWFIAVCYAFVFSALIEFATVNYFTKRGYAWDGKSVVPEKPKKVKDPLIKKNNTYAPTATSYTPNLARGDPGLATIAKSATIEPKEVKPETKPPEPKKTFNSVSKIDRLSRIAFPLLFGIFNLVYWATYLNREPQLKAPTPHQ
T2 sequence (P47870 25-512 limits assumed): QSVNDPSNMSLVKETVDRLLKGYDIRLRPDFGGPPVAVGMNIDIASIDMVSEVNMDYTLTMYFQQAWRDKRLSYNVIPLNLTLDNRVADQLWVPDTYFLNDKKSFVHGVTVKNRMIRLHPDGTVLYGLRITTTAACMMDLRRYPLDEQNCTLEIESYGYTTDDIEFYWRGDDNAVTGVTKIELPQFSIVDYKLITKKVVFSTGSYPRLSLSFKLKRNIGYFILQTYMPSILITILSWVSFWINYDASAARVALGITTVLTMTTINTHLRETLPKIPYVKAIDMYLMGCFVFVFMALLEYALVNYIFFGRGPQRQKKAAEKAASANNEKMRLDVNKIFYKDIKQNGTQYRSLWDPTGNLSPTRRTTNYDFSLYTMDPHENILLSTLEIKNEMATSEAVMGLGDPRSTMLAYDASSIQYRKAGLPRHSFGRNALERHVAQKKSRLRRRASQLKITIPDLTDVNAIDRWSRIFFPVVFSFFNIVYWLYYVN
T2 sequence (P18507 40-475): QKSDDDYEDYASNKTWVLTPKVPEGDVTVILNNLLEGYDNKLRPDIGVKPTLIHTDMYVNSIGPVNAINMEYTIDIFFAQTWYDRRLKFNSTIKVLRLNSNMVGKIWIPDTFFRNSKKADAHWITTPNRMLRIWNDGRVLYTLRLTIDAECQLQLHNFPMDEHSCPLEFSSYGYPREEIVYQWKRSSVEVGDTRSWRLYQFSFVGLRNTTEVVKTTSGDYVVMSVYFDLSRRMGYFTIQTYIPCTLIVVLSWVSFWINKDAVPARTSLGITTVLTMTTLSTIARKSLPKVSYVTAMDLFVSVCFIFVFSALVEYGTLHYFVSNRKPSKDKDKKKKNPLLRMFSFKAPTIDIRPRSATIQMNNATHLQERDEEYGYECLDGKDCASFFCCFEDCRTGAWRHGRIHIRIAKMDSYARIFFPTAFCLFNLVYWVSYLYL

In general, EC50 refers to the concentration at which the effect is half-maximal. For orientation: inhibition means the percentage by which the read-out fell short of the control. As to `C[C@H]1c2cccc(C(C)(C)O)c2C[C@H](CO)N1C(=O)Cc1c(Cl)ccc2c1c(Cl)nn2C` [compound of formula (I), 2-(3,5-dichloro-1-methyl-indazol-4-yl)-1-[(1S,3R)-3-(hydroxymethyl)-5-(1-hydroxy-1-methyl-ethyl)-1-methyl-3,4-dihydro-1H-isoquinolin-2-yl]ethanone], the Emax at 10 µM on dopamine D1 receptor [1] was less than 20%. Also, the “Erel (relative efficacy)” value on dopamine D1 receptor [2] (maximal potentiation relative to dopamine maximum response (100%)) is given as “about 68%”. Besides, the EC50 on dopamine D1 receptor [2] (potentiation of cAMP in presence of EC20 dopamine (1.1 nM), LMtk cells expressing D1) is ~7.94 nM and < 316 nM. The inhibition at 10 µM in series [3] was less than 0.1%. In addition, in the series on CYP3A4 (compound 1 μM vs Rifampicin 10 μM, 72 h, CYP3A4 activity (midazolam)), the “fold-induction value, times lower than positive control (Rifampicin)” value is reported as “at least 7 times lower”. Besides, the “induction potential, times lower than positive control (Rifampicin)” value with CYP3A4 (highest fold-induction: compound at highest soluble concentration 3 μM vs Rifampicin 10 μM) is recorded as “about 4 times lower”.
